Data published in patent publication US7015238B2, “Crystalline organic acid salt of amlodipine” (CJ Corp., priority 2002, dated 2006).
Counter-ions that a name gives are not always drawn.

Assays:
Type in all cases: physicochemical
[1] = Evaluation of photostability (exposed to sunlight at 25° C. for 4 weeks, HPLC content); conditions: for Content (HPLC): stored at 25° C. for 4 weeks with light exposure; for Colour of the surface after exposure to light: white at initial stage, exposed to sunlight at 25° C., 4 weeks
Description: To evaluate photostability, a change in the content (%, HPLC) of each sample was observed under the same HPLC analysis conditions as in the evaluation of thermal stability. Photostability is quite an important factor in therapeutic agents for treating hypertension because they are administered to patients over a prolonged period of dosage.

[2] = Stability in a liquid state (distilled water, 25° C., 4 weeks, protected from light); conditions: dissolved in distilled water, 4 weeks at 25° C.
Source text: The observation was made under the same conditions as in the HPLC analysis for evaluating the thermal stability of samples in a solid state.

[3] = Thermal stability in a solid state, acceleration test at 60° C. (HPLC content)
Description: High Performance Liquid Chromatography (HPLC) analysis was conducted under the following conditions:
Detector: UV absorption (237 nm)
Column: Octadesyl silica gel C18 (4.6 mm×150 mm, 5 μm)
Mobile phase: Potassium dihydrogen phosphate monobasic (0.03 M): Methanol=4:6 (by volume)

[4] = Evaluation of hygroscopicity: water content by Karl Fisher method under various humidity conditions; conditions: 25° C.

SMILES | Content (HPLC) [1] [%] | Colour of the surface after exposure to light [1] | Change in the content (HPLC) [2] | Decomposed products [2] | Content (HPLC) ([3]; 60° C., 1 week) [%] | Content (HPLC) ([3]; initial stage) [%] | Water content (Karl Fisher method) ([4]; initial stage) [%] | Water content (Karl Fisher method) ([4]; relative humidity 25%, 1 week) [%] | Water content (Karl Fisher method) ([4]; relative humidity 60%, 1 week) [%] | Water content (Karl Fisher method) ([4]; relative humidity 75%, 1 week) [%] | Water content (Karl Fisher method) ([4]; relative humidity 95%, 1 week) [%] | Content (HPLC) ([3]; 60° C., 2 weeks) [%] | Content (HPLC) ([3]; 60° C., 4 weeks) [%]
CCOC(=O)C1=C(COCCN)NC(C)=C(C(=O)OC)C1c1ccccc1Cl (stereo not drawn) [Besylate salt, Amlodipine Besylate, reference compound] | 82.5 | turned yellow | no significant changes in the content | no decomposed products | 99.6 | 99.6 | 0.14 | 0.10 | 0.09 | 0.15 | 0.17 |  | 
CCOC(=O)C1=C(COCCN)NC(C)=C(C(=O)OC)C1c1ccccc1Cl (stereo not drawn) [Adipic acid salt, crystalline adipic acid salt of amlodipine] |  | remained white | no significant changes in the content | no decomposed products | 99.8 | 99.8 | 0.10 | 0.10 | 0.10 | 0.14 | 0.16 | 99.7 | 99.7
CCOC(=O)C1=C(COCCN)NC(C)=C(C(=O)OC)C1c1ccccc1Cl (stereo not drawn) [Tosylate salt, Amlodipine p-Toluene Sulfonate] | 72.0 |  |  |  |  |  |  |  |  |  |  |  | 
